Measured values from patent US20240190904A1, “Heteroaryl compounds as inhibitors of RIP2 kinase, composition and application thereof” (Accro Bioscience (HK) Limited, priority 2021, published 2024).
pKd: −log10 of the molar value.

Assays:
[1] = Metabolic stability test, HLM; type: in vitro ADME; conditions: human, liver microsomes; for CLint scaled at 1 μM: pH 7.4, read-out: Cl (mL/min/kg) HLM; for half-life at 1 μM: pH 7.4, read-out: T1/2 (min) HLM
Description: • 1. Buffers: • Buffer A: 1.0 L of 0.1 M monobasic Potassium Phosphate buffer containing 1.0 mM EDTA • Buffer B: 1.0 L of 0.1 M Dibasic Potassium Phosphate buffer containing 1.0 mM EDTA • Buffer C: 0.1 M Potassium Phosphate buffer, 1.0 mM EDTA, pH 7.4 by titrating 700 mL of buffer B with buffer A while monitoring with the pH meter. • 2. Reference compounds (Ketanserin) and test compounds spiking solution: • 500 μM spiking solution: add 10 μL of 10 mM DMSO stock solution into 190 μL ACN. • 1.5 μM spiking solution in microsomes (0.75 mg/mL): add 1.5 μL of 500 μM spiking solution and 18.75 μL of 20 mg/mL liver microsomes into 479.75 μL of Buffer C on ice. • 3. Prepare NADPH stock solution (6 mM) by dissolving NADPH into buffer C. • 4. Dispense 30 μL of 1.5 μM spiking solution containing 0.75 mg/mL microsomes solution to the assay plates designated for different time points (0-, 5-, 15-, 30-, 45-min) on ice. • 5. For 0-min time point, add 135 μL of ACN containing IS to the wells of 0-min plate and then add 15 μL of NADPH stock solution (6 mM). • 6. Pre-incubate all other plates at 37° C. for 5 minutes. • 7. Add 15 μL of NADPH stock solution (6 mM) to the plates to start the reaction and timing. • 8. At 5-min, 15-min, 30-min, and 45-min, add 135 μL of ACN containing IS to the wells of corresponding plates, respectively, to stop the reaction. • 9. After quenching, shake the plates at the vibrator (IKA, MTS 2/4) for 10 min (600 rpm/min) and then centrifuge at 5594 g for 15 min (ThermoMultifuge×3R). • 10. Transfer 50 μL of the supernatant from each well into a 96-well sample plate containing 50 μL of ultra pure water (Millipore, ZMQS50F01) for LC/MS analysis.

[2] = Caco-2 permeability test; type: in vitro ADME; conditions: human, Caco-2, pH 7.4
Description: (§1) • 1. Prewarm HBSS Buffer in 37° C. water bath • 2. Take compounds from −20° C., sonicate for a few minutes (no less than 1 minute) • 3. Solution preparation
(§2) For A-to-B direction: • HBSS buffer with 0.3% DMSO and 5 μM LY: add 150 μL DMSO and 50 μL LY (5 mM) into 50 ml HBSS buffer (pH7.4). • HBSS buffer with 0.1% DMSO and 5 μM LY: add 50 μL DMSO and 50 μL LY (5 mM) into 50 mL HBSS buffer (pH7.4).
(§3) For B-to-A direction: • HBSS buffer with 0.3% DMSO: add 150 μL DMSO into 50 ml HBSS buffer (pH7.4) • HBSS buffer with 0.1% DMSO: add 50 μL DMSO into 50 ml HBSS buffer (pH7.4).
(§4) Receiver Solution Buffer:
(§5) Prepare HBSS buffer with 0.4% DMSO: add 200 μL DMSO into 50 ml HBSS buffer (pH7.4).
(§6) For B-to-A direction: • Prepare HBSS buffer with 0.4% DMSO and 5 uM LY: add 200 μL DMSO and 50 μL LY (5 mM) into 50 ml HBSS buffer (pH7.4).
(§7) Take cell culture plate out of incubator, wash the cell monolayers with HBSS buffer, and then measure TEER values at Rm temperature. • 5. Centrifuge the compound solution (from step 3) at 4000 rpm for 5 min before loading to donor chambers. • 6. Add solution based on the volumes listed in the following table (make sure to take extra 100 uL of donor sample for T0 as Backup).
(§8) • 7. To determine LY concentration in the apical chamber, take 100 μL sample from apical chambers into an opaque plate for LYT0. • 8. Prewarm apical and basolateral plates at 37° C. for about 5 min, then begin transport by placing the apical plate onto basolateral plate. • 9. Keep the plates in incubator at 37° C. for 90 min • 10. Prepare 20× solution
(§9) • 11. Separate the apical plate from the basolateral plate after 90-min incubation. • 12. Take 100 μL samples from basolateral plate to an opaque plate as LYT90. • 13. Measure LY concentrations for LYT0 and LYT90 by Fluorometer (at excitation of 485 nm/emission of 535 nm). • 14. Sample preparation for LC-MS/MS: Donor or receiver samples are diluted by 0.4% DMSO HBSS, then mix with ACN with IS (Osalmid or Imipramine)

[3] = system: Caco-2; assay: Caco-2 permeability test; type: in vitro ADME; conditions: Caco-2
Description: as §1, §2, §3, §4, §5, §6, §7, §8, §9

[4] = biological target: RIP2 kinase (Homo sapiens (Human), UniProt O43353); assay: Binding affinity assay (Kd)
Chain of RIP2 kinase (O43353 whole entry): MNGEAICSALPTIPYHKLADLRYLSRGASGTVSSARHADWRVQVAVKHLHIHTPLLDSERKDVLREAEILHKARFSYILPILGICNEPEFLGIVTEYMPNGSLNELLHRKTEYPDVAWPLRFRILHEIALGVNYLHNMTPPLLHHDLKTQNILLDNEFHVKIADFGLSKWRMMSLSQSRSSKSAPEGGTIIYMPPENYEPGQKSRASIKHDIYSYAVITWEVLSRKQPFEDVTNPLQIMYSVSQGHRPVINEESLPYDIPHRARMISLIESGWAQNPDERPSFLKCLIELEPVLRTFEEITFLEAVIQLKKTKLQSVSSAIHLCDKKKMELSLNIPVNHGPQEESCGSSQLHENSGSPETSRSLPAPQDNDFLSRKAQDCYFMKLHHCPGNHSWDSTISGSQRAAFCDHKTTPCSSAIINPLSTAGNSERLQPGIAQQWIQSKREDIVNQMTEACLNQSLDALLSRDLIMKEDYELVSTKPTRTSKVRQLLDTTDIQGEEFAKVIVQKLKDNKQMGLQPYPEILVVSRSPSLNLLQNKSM
Description: For most assays, kinase-tagged T7 phage strains were prepared in an E. coli host derived from the BL21 strain. E. coli were grown to log-phase and infected with T7 phage and incubated with shaking at 32° C. until lysis. The lysates were centrifuged and filtered to remove cell debris. The remaining kinases were produced in HEK-293 cells and subsequently tagged with DNA for qPCR detection. Streptavidin coated magnetic beads were treated with biotinylated small molecule ligands for 30 minutes at room temperature to generate affinity resins for kinase assays. The liganded beads were blocked with excess biotin and washed with blocking buffer (SeaBlock (Pierce), 1% BSA, 0.05% Tween 20, 1 mM DTT) to remove unbound ligand and to reduce non-specific binding. Binding reactions were assembled by combining kinases, liganded affinity beads, and test compounds in 1× binding buffer (20% SeaBlock, 0.17×PBS, 0.05% Tween 20, 6 mM DTT). Test compounds were prepared as 111× stocks in 100% DMSO. Kds were determined using an 11-point 3-fold compound dilution series with three DMSO control points. All compounds for Kd measurements are distributed by acoustic transfer (non-contact dispensing) in 100% DMSO. The compounds were then diluted directly into the assays such that the final concentration of DMSO was 0.9%. All reactions performed in polypropylene 384-well plate. Each was a final volume of 0.02 ml. The assay plates were incubated at room temperature with shaking for 1 hour and the affinity beads were washed with wash buffer (1×PBS, 0.05% Tween 20). The beads were then re-suspended in elution buffer (1×PBS, 0.05% Tween 20, 0.5 μM nonbiotinylated affinity ligand) and incubated at room temperature with shaking for 30 minutes. The kinase concentration in the eluates was measured by qPCR.
An 11-point 3-fold serial dilution of each test compound was prepared in 100% DMSO at 100× final test concentration and subsequently diluted to 1× in the assay (final DMSO concentration=1%). Most Kds were determined using a compound top concentration=30,000 nM. If the initial Kd determined was <0.5 nM (the lowest concentration tested), the measurement was repeated with a serial dilution starting at a lower top concentration.
Binding constants (Kds) were calculated with a standard dose-response curve using the Hill equation: […]
The Hill Slope was set to −1.
Curves were fitted using a non-linear least square fit with the Levenberg-Marquardt algorithm.

[5] = efflux ratio, read-out: Caco-2 Permeability B-A/A-B

SMILES | CLint scaled at 1 μM [1] [mL/min/kg] | half-life at 1 μM [1] [min] | Papp A→B at 90 min ([2]; A-B) [×10⁻⁶ cm/s] | Papp B→A at 90 min ([2]; B-A) [×10⁻⁶ cm/s] | efflux ratio at 90 min [2, 5] | efflux (in words) [3] | permeability (in words) [3] | pKd [4] | Papp A→B at 90 min, 2 μM ([2]; A-B, test at 2 μM) [×10⁻⁶ cm/s] | Papp B→A at 90 min, 2 μM ([2]; B-A, test at 2 μM) [×10⁻⁶ cm/s] | efflux ratio at 90 min, 2 μM ([2]; efflux ratio, test at 2 μM, read-out: Caco-2 Permeability B-A/A-B)
COc1cc2nccc(Nc3ccc4scnc4c3)c2cc1P(C)(C)=O [A6] | 2.97 | 586 | 15.2 | 33 | 2.18 | no obvious efflux | high permeability | 8.51 | – | – | –
CP(C)(=O)c1cc2c(Nc3ccc4scnc4c3)ccnc2cc1OCCO [A7, (4-(benzo[d]thiazol-5-ylamino)-7-(2-hydroxyethoxy)quinolin-6-yl)dimethylphosphine oxide] | 4.13 | 421 | 0.5 | 10.2 | 20.5 | – | low | 8.24 | – | – | –
COCCOc1cc2nccc(Nc3ccc4scnc4c3)c2cc1P(C)(C)=O [A8] | 15.9 | 109 | 11.9 | 35.6 | 2.98 | efflux substrate | favorable permeability | 8.70 | – | – | –
CC1(COc2cc3nccc(Nc4ccc5scnc5c4)c3cc2P(C)(C)=O)COC1 [A9] | 33.5 | 52 | 7.85 | 46.5 | 5.92 | – | moderate | 8.68 | – | – | –
CP(C)(=O)c1cc2c(Nc3ccc4scnc4c3)ccnc2cc1O[C@H]1CCOC1 [A14] | 22.9 | 75.8 | 7 | 35.9 | 5.13 | – | moderate | 8.52 | – | – | –

Second part, the molecule after the results:

CLint scaled at 1 μM [1] [mL/min/kg] | half-life at 1 μM [1] [min] | Papp A→B at 90 min ([2]; A-B) [×10⁻⁶ cm/s] | Papp B→A at 90 min ([2]; B-A) [×10⁻⁶ cm/s] | efflux ratio at 90 min [2, 5] | efflux (in words) [3] | permeability (in words) [3] | pKd [4] | Papp A→B at 90 min, 2 μM ([2]; A-B, test at 2 μM) [×10⁻⁶ cm/s] | Papp B→A at 90 min, 2 μM ([2]; B-A, test at 2 μM) [×10⁻⁶ cm/s] | efflux ratio at 90 min, 2 μM ([2]; efflux ratio, test at 2 μM, read-out: Caco-2 Permeability B-A/A-B) | SMILES
19.6 | 88.6 | 5.36 | 35 | 6.53 | – | moderate | 8.52 | – | – | – | CP(C)(=O)c1cc2c(Nc3ccc4scnc4c3)ccnc2cc1O[C@@H]1CCOC1 [A15]
9.98 | 174 | 2.16 | 31.1 | 14.4 | – | low | 8.42 | – | – | – | CP(C)(=O)c1cc2c(Nc3ccc4scnc4c3)ccnc2cc1OC1COC1 [A16]
– | – | – | – | – | no obvious efflux | high permeability | 8.28 | 16.9 | 26.6 | 1.58 | CP(C)(=O)c1cc2c(Nc3ccc4scnc4c3)ccnc2cc1OC(F)(F)F [A24]
